Literature values in patent US20240318128A1, “BIOFUNGICIDE PRODUCTION BY CONIOCHAETA AND APPLICATION IN CONTROL OF EARLY BLIGHT OF POTATO” (The United States of America, as represented by the …, priority 2023, published 2024).

Tested on: yeast and bacteria
Conditions: Segeth et al. 2003

Substance: coniocetin
- spectrum of inhibition: inhibits
